Source: patent EP4745151A1, “FIBROBLAST ACTIVATION PROTEIN LIGAND AND USE THEREOF” (Jiangsu Hengrui Pharmaceuticals Co., Ltd., priority 2023, dated 2025)
Read-outs that look alike come from different tables or passages of the source. Blank lines part the entries; values can stand above or below the compound they belong to. Numbered stars: 1 amine (or outer) side, 2 acyl side, 3 side chain; on linkers, the order of the positions; unused ones are H or OH. Bridge positions count the residues as written; N and C are the ends. Square brackets hold non-standard residues; d marks the D form. Peptide text beside a SMILES is read from it. * marks the point of attachment. TBMB(SCH2CH2NH-DOTA) = O=C(O)CN1CCN(CC(=O)O)CCN(CC(=O)NCCSCc2cc(C[*:1])cc(C[*:2])c2)CCN(CC(=O)O)CC1; X1 = O=C(O)CN1CCN(CC(=O)O)CCN(CC(=O)NCCSCc2cc(C[*:1])cc(C[*:2])c2)CC1; Phe(2-CF3) = N[C@@H](Cc1ccccc1C(F)(F)F)C(=O)O; Pro(trans-4-F) = O=C(O)[C@@H]1C[C@@H](F)CN1; Phe(3-F) = N[C@@H](Cc1cccc(F)c1)C(=O)O; Phe(4-F) = N[C@@H](Cc1ccc(F)cc1)C(=O)O; Phe(2-F) = N[C@@H](Cc1ccccc1F)C(=O)O; Hyp = O=C(O)[C@@H]1C[C@@H](O)CN1; Hexanoyl = CCCCCC(=O)*; Aib = CC(C)(N)C(=O)O

Columns and labels:
FAPα = target: T1, FAPα (Homo sapiens, UniProt Q12884); assay: FAPα enzyme activity test; format: biochemical; conditions: substrate Z-Gly-Pro-AMC, 37°C
T1 sequence (Q12884 1-760): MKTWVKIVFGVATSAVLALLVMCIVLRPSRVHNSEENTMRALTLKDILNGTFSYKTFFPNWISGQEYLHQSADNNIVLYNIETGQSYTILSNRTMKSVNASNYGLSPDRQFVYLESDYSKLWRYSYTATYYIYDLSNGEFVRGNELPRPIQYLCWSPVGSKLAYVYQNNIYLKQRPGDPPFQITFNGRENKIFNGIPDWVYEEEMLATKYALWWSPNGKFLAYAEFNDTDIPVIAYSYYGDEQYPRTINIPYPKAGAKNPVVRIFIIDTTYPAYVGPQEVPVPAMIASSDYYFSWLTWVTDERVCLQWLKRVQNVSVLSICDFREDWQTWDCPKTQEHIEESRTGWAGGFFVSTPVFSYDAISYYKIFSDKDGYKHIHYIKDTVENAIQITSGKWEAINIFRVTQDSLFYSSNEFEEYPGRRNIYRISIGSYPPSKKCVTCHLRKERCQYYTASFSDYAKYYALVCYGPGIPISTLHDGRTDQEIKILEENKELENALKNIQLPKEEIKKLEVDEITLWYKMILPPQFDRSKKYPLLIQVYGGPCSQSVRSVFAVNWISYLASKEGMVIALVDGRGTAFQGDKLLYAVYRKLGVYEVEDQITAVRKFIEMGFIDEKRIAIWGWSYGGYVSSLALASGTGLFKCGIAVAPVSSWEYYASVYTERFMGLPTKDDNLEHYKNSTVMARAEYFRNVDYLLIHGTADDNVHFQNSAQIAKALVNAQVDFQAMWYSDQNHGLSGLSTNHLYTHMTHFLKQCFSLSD
Method: The substrate (Z-Gly-Pro-AMC) was diluted with DMSO to prepare a 0.5 mM stock solution. Before each experiment, the 0.5 mM stock solution was diluted with PBS to 50 µM for later use. The FAPα protein was diluted with PBS to 0.5 ng/µl for later use. […] The test compounds and positive control were subjected to a 5-fold serial dilution with PBS to obtain 8 gradients for later use, with the highest concentration being 10 µM, and the lowest concentration being […]. Test method: 85 µl of the FAPα dilution and 10 µl of the compound dilution were added to a microplate, uniformly mixed and incubated at 37°C for 10 min. Then, 5 µl of 50 µM substrate was added, uniformly mixed and incubated at 37°C for 10 min. The microplate was read on a microplate reader, with an excitation wavelength of 380 nm and an emission wavelength of 465 nm.

U-87 MG cells = conditions: mouse, in vivo; for Tumour/kidney: B-NDG, iv
in vivo = conditions: B-NDG, mouse, iv, total radioactivity, Tumour/kidney

Structure (SMILES): CCCCCC(=O)N[C@H]1CSCc2cc(CSCCNC(=O)CN3CCN(CC(=O)O)CCN(CC(=O)O)CCN(CC(=O)O)CC3)cc(c2)CSC[C@@H](C(=O)O)NC(=O)[C@H](Cc2ccccc2C(F)(F)F)NC(=O)[C@H](CCC(N)=O)NC(=O)[C@H]([C@@H](C)O)NC(=O)[C@@H]2C[C@@H](O)CN2C(=O)[C@@H]2CCCN2C(=O)C(C)(C)NC1=O [DOTA-09] (Hexanoyl-C[Aib]P[Hyp]TQ[Phe(2-CF3)]C-OH; linker 1-8 via TBMB(SCH2CH2NH-DOTA))
IC50 (FAPα): 0.28 nM

Structure (SMILES): CCCCCC(=O)N[C@H]1CSCc2cc(CSCCNC(=O)CN3CCN(CC(=O)O)CCN(CC(=O)O)CCN(CC(=O)O)CC3)cc(c2)CSC[C@@H](C(=O)O)NC(=O)[C@H](Cc2ccccc2)NC(=O)[C@H](CCC(N)=O)NC(=O)[C@H]([C@@H](C)O)NC(=O)[C@@H]2CCCN2C(=O)[C@@H]2CCCN2C1=O [FAP-2286, reference compound]
IC50 (FAPα): 11.7 nM

Structure (SMILES): CCCCCC(=O)N[C@H]1CSCc2cc(CSCCNC(=O)CN3CCN(CC(=O)O)CCN(CC(=O)O)CC3)cc(c2)CSC[C@@H](C(=O)O)NC(=O)[C@H](Cc2ccccc2)NC(=O)[C@H](CCC(N)=O)NC(=O)[C@H]([C@@H](C)O)NC(=O)[C@@H]2CCCN2C(=O)[C@@H]2CCCN2C1=O [Al^18F-NOTA-2286, reference compound]
Tumour/kidney (U-87 MG cells; 0.5 h): 2.57±0.09
Tumour/kidney (U-87 MG cells; 1.5 h): 11.24±1.79
Tumour/kidney (U-87 MG cells; 3 h): 10.06±1.60

Structure (SMILES): CCCCCC(=O)N[C@H]1CSCc2cc(CSCCNC(=O)CN3CCN(CC(=O)O)CCN(CC(=O)O)CCN(CC(=O)O)CC3)cc(c2)CSC[C@@H](C(=O)O)NC(=O)[C@H](Cc2ccccc2C(F)(F)F)NC(=O)[C@H](CCC(N)=O)NC(=O)[C@H]([C@@H](C)O)NC(=O)[C@@H]2C[C@@H](O)CN2C(=O)[C@@H]2CCCN2C(=O)C(C)(C)NC1=O [^68Ga-DOTA-09, metal not drawn] (Hexanoyl-C[Aib]P[Hyp]TQ[Phe(2-CF3)]C-OH; linker 1-8 via TBMB(SCH2CH2NH-DOTA))
tissue to tissue ratio at 0.5 h (in vivo): 2.81 ± 0.21
tissue to tissue ratio at 1.5 h (in vivo): 5.34 ± 0.92
tumour uptake compared with control (U-87 MG cells): significantly higher
tumour/kidney ratio compared with control (U-87 MG cells): significantly higher
tumour/kidney uptake ratio compared with control (U-87 MG cells): significantly higher

IC50 (FAPα): 1.08 nM
Structure (SMILES): CCCCCC(=O)N[C@H]1CSCc2cc(CSCCNC(=O)CN3CCN(CC(=O)O)CCN(CC(=O)O)CCN(CC(=O)O)CC3)cc(c2)CSC[C@@H](C(=O)O)NC(=O)[C@H](Cc2ccccc2)NC(=O)[C@H](CCC(N)=O)NC(=O)[C@H]([C@@H](C)O)NC(=O)[C@@H]2C[C@@H](F)CN2C(=O)[C@@H]2CCCN2C(=O)C(C)(C)NC1=O [DOTA-12] (Hexanoyl-C[Aib]P[Pro(trans-4-F)]TQFC-OH; linker 1-8 via TBMB(SCH2CH2NH-DOTA))

IC50 (FAPα): 0.93 nM
Structure (SMILES): CCCCCC(=O)N[C@H]1CSCc2cc(CSCCNC(=O)CN3CCN(CC(=O)O)CCN(CC(=O)O)CCN(CC(=O)O)CC3)cc(c2)CSC[C@@H](C(=O)O)NC(=O)[C@H](Cc2ccccc2F)NC(=O)[C@H](CCC(N)=O)NC(=O)[C@H]([C@@H](C)O)NC(=O)[C@@H]2C[C@@H](O)CN2C(=O)[C@@H]2CCCN2C(=O)C(C)(C)NC1=O [DOTA-06] (Hexanoyl-C[Aib]P[Hyp]TQ[Phe(2-F)]C-OH; linker 1-8 via TBMB(SCH2CH2NH-DOTA))

IC50 (FAPα): 0.53 nM
Structure (SMILES): CCCCCC(=O)N[C@H]1CSCc2cc(CSCCNC(=O)CN3CCN(CC(=O)O)CCN(CC(=O)O)CCN(CC(=O)O)CC3)cc(c2)CSC[C@@H](C(=O)O)NC(=O)[C@H](Cc2ccc(F)cc2)NC(=O)[C@H](CCC(N)=O)NC(=O)[C@H]([C@@H](C)O)NC(=O)[C@@H]2C[C@@H](O)CN2C(=O)[C@@H]2CCCN2C(=O)C(C)(C)NC1=O [DOTA-08] (Hexanoyl-C[Aib]P[Hyp]TQ[Phe(4-F)]C-OH; linker 1-8 via TBMB(SCH2CH2NH-DOTA))

IC50 (FAPα): 1.5 nM
Structure (SMILES): CCCCCC(=O)N[C@H]1CSCc2cc(CSCCNC(=O)CN3CCN(CC(=O)O)CCN(CC(=O)O)CCN(CC(=O)O)CC3)cc(c2)CSC[C@@H](C(=O)O)NC(=O)[C@H](Cc2cccc(F)c2)NC(=O)[C@H](CCC(N)=O)NC(=O)[C@H]([C@@H](C)O)NC(=O)[C@@H]2C[C@@H](O)CN2C(=O)[C@@H]2CCCN2C(=O)C(C)(C)NC1=O [DOTA-07] (Hexanoyl-C[Aib]P[Hyp]TQ[Phe(3-F)]C-OH; linker 1-8 via TBMB(SCH2CH2NH-DOTA))

IC50 (FAPα): 0.45 nM
Structure (SMILES): CCCCCC(=O)N[C@H]1CSCc2cc(CSCCNC(=O)CN3CCN(CC(=O)O)CCN(CC(=O)O)CC3)cc(c2)CSC[C@@H](C(=O)O)NC(=O)[C@H](Cc2ccccc2)NC(=O)[C@H](CCC(N)=O)NC(=O)[C@H]([C@@H](C)O)NC(=O)[C@@H]2C[C@@H](O)CN2C(=O)[C@@H]2CCCN2C(=O)C(C)(C)NC1=O [NOTA-05] (Hexanoyl-C[Aib]P[Hyp]TQFC-OH; linker 1-8 via X1)

Structure (SMILES): CCCCCC(=O)N[C@H]1CSCc2cc(CSCCNC(=O)CN3CCN(CC(=O)O)CCN(CC(=O)O)CC3)cc(c2)CSC[C@@H](C(=O)O)NC(=O)[C@H](Cc2ccccc2)NC(=O)[C@H](CCC(N)=O)NC(=O)[C@H]([C@@H](C)O)NC(=O)[C@@H]2CCCN2C(=O)[C@@H]2CCCN2C1=O [NOTA-2286, reference compound]
IC50 (FAPα): 0.59 nM

IC50 (FAPα): 1.09 nM
Structure (SMILES): CCCCCC(=O)N[C@H]1CSCc2cc(CSCCNC(=O)CN3CCN(CC(=O)O)CCN(CC(=O)O)CCN(CC(=O)O)CC3)cc(c2)CSC[C@@H](C(=O)O)NC(=O)[C@H](Cc2ccccc2F)NC(=O)[C@H](CCC(N)=O)NC(=O)[C@H]([C@@H](C)O)NC(=O)[C@@H]2C[C@@H](F)CN2C(=O)[C@@H]2CCCN2C(=O)C(C)(C)NC1=O [DOTA-13] (Hexanoyl-C[Aib]P[Pro(trans-4-F)]TQ[Phe(2-F)]C-OH; linker 1-8 via TBMB(SCH2CH2NH-DOTA))

Structure (SMILES): CCCCCC(=O)N[C@H]1CSCc2cc(CSCCNC(=O)CN3CCN(CC(=O)O)CCN(CC(=O)O)CC3)cc(c2)CSC[C@@H](C(=O)O)NC(=O)[C@H](Cc2ccccc2)NC(=O)[C@H](CCC(N)=O)NC(=O)[C@H]([C@@H](C)O)NC(=O)[C@@H]2CCCN2C(=O)[C@@H]2CCCN2C1=O [^68Ga-NOTA-2286, metal not drawn, reference compound]
tissue to tissue ratio at 0.5 h (in vivo): 1.59 ± 0.55
Tumour/kidney (U-87 MG cells; 1.5 h): 1.77±0.31
Tumour/kidney (U-87 MG cells; 3 h): 2.43±1.04

IC50 (FAPα): 0.088 nM
Structure (SMILES): CCCCCC(=O)N[C@H]1CSCc2cc(CSCCNC(=O)CN3CCN(CC(=O)O)CCN(CC(=O)O)CC3)cc(c2)CSC[C@@H](C(=O)O)NC(=O)[C@H](Cc2ccccc2F)NC(=O)[C@H](CCC(N)=O)NC(=O)[C@H]([C@@H](C)O)NC(=O)[C@@H]2C[C@@H](O)CN2C(=O)[C@@H]2CCCN2C(=O)C(C)(C)NC1=O [NOTA-06] (Hexanoyl-C[Aib]P[Hyp]TQ[Phe(2-F)]C-OH; linker 1-8 via X1)

Structure (SMILES): CCCCCC(=O)N[C@H]1CSCc2cc(CSCCNC(=O)CN3CCN(CC(=O)O)CCN(CC(=O)O)CCN(CC(=O)O)CC3)cc(c2)CSC[C@@H](C(=O)O)NC(=O)[C@H](Cc2ccccc2)NC(=O)[C@H](CCC(N)=O)NC(=O)[C@H]([C@@H](C)O)NC(=O)[C@@H]2CCCN2C(=O)[C@@H]2CCCN2C1=O [^68Ga-FAP-2286, metal not drawn]
tissue to tissue ratio at 1 h (in vivo): 1.56 ± 0.11
tissue to tissue ratio at 3 h (in vivo): 0.87 ± 0.14

IC50 (FAPα): 1.16 nM
Structure (SMILES): CCCCCC(=O)N[C@H]1CSCc2cc(CSCCNC(=O)CN3CCN(CC(=O)O)CCN(CC(=O)O)CCN(CC(=O)O)CC3)cc(c2)CSC[C@@H](C(=O)O)NC(=O)[C@H](Cc2ccccc2)NC(=O)[C@H](CCC(N)=O)NC(=O)[C@H]([C@@H](C)O)NC(=O)[C@@H]2C[C@@H](O)CN2C(=O)[C@@H]2CCCN2C(=O)C(C)(C)NC1=O [DOTA-05] (Hexanoyl-C[Aib]P[Hyp]TQFC-OH; linker 1-8 via TBMB(SCH2CH2NH-DOTA))
